Five compounds from ChEMBL document CHEMBL5724914, “Linking interpersonal differences in gut microbiota composition and drug biotransformation activity” (2024) can be followed below.

Structures are written as SMILES.

Series [1] in a line: The drug is tested on WLS-007 corresponding to human gut metagenome with ENA study accession number: PRJEB37062 and ENA sample accession number: ERS12561742 for biotransformation under anaerobic condition. The drug concentrations were measured over 9 timepoints collected between 0 and 24 hours of incubation by liquid-chromatography-coupled mass spectrometry (LC–MS). Particulars: 2 µM.

Series [2] can be described thus: The drug is tested on Z-029 corresponding to rat gut metagenome with ENA study accession number: PRJEB37062 and ENA sample accession number: ERS12561828 for biotransformation under anaerobic condition. The drug concentrations were measured over 9 timepoints collected between 0 and 24 hours of incubation by liquid-chromatography-coupled mass spectrometry (LC–MS). Particulars: 2 µM.

The conditions of series [3]: human gut metagenome, 24 h, 2 µM.
Series [4] can be described thus: The drug is tested on Z-017 corresponding to mouse gut metagenome with ENA study accession number: PRJEB37062 and ENA sample accession number: ERS12561816 for biotransformation under anaerobic condition. The drug concentrations were measured over 9 timepoints collected between 0 and 24 hours of incubation by liquid-chromatography-coupled mass spectrometry (LC–MS). Particulars: 2 µM.

A short description of series [5]: The drug is tested on WLS-310 corresponding to human gut metagenome with ENA study accession number: PRJEB37062 and ENA sample accession number: ERS12561785 for biotransformation under anaerobic condition. The drug concentrations were measured over 9 timepoints collected between 0 and 24 hours of incubation by liquid-chromatography-coupled mass spectrometry (LC–MS). Particulars: 2 µM.

Series [6] in a line: The drug is tested on Z-028 corresponding to mouse gut metagenome with ENA study accession number: PRJEB37062 and ENA sample accession number: ERS12561827 for biotransformation under anaerobic condition. The drug concentrations were measured over 9 timepoints collected between 0 and 24 hours of incubation by liquid-chromatography-coupled mass spectrometry (LC–MS). Particulars: 2 µM.

The conditions of series [7]: human gut metagenome, 24 h, 2 µM. The source holds these as a separate data set.
The nature of series [8]: The drug is tested on Z-019 corresponding to rat gut metagenome with ENA study accession number: PRJEB37062 and ENA sample accession number: ERS12561818 for biotransformation under anaerobic condition. The drug concentrations were measured over 9 timepoints collected between 0 and 24 hours of incubation by liquid-chromatography-coupled mass spectrometry (LC–MS). Particulars: 2 µM.

Series [9] is described as follows: The drug is tested on Z-026 corresponding to metagenome with ENA study accession number: PRJEB37062 and ENA sample accession number: ERS12561825 for biotransformation under anaerobic condition. The drug concentrations were measured over 9 timepoints collected between 0 and 24 hours of incubation by liquid-chromatography-coupled mass spectrometry (LC–MS). Particulars: 2 µM.

The conditions of series [10]: human gut metagenome, 24 h, 2 µM. The source holds these as a separate data set.
For series [11] the following is noted: human gut metagenome, 24 h, 2 µM. The source holds these as a separate data set.
The conditions of series [12]: human gut metagenome, 24 h, 2 µM. This is another data set of the same source.
For series [13] the following is noted: human gut metagenome, 24 h, 2 µM. The source holds these as a separate data set.
Series [14] can be described thus: The drug is tested on Z-001 corresponding to mouse gut metagenome with ENA study accession number: PRJEB37062 and ENA sample accession number: ERS12561801 for biotransformation under anaerobic condition. The drug concentrations were measured over 9 timepoints collected between 0 and 24 hours of incubation by liquid-chromatography-coupled mass spectrometry (LC–MS). Particulars: 2 µM.

Series [15] can be described thus: The drug is tested on Z-008 corresponding to metagenome with ENA study accession number: PRJEB37062 and ENA sample accession number: ERS12561808 for biotransformation under anaerobic condition. The drug concentrations were measured over 9 timepoints collected between 0 and 24 hours of incubation by liquid-chromatography-coupled mass spectrometry (LC–MS). Particulars: 2 µM.

The conditions of series [16]: human gut metagenome, 24 h, 2 µM. This is another data set of the same source.
For series [17] the following is noted: human gut metagenome, 24 h, 2 µM. The source holds these as a separate data set.
Series [18] can be described thus: The drug is tested on Z-014 corresponding to rat gut metagenome with ENA study accession number: PRJEB37062 and ENA sample accession number: ERS12561814 for biotransformation under anaerobic condition. The drug concentrations were measured over 9 timepoints collected between 0 and 24 hours of incubation by liquid-chromatography-coupled mass spectrometry (LC–MS). Particulars: 2 µM.

Series [19] in a line: The drug is tested on WLS-010 corresponding to human gut metagenome with ENA study accession number: PRJEB37062 and ENA sample accession number: ERS12561743 for biotransformation under anaerobic condition. The drug concentrations were measured over 9 timepoints collected between 0 and 24 hours of incubation by liquid-chromatography-coupled mass spectrometry (LC–MS). Particulars: 2 µM.

Series [20] can be described thus: The drug is tested on Z-016 corresponding to mouse gut metagenome with ENA study accession number: PRJEB37062 and ENA sample accession number: ERS12561815 for biotransformation under anaerobic condition. The drug concentrations were measured over 9 timepoints collected between 0 and 24 hours of incubation by liquid-chromatography-coupled mass spectrometry (LC–MS). Particulars: 2 µM.
Further: call rule not given here.

Take `CN(C)CC(c1ccc(O)cc1)C1(O)CCCCC1.O=C(O)CCC(=O)O` (stereo not given) [DESVENLAFAXINE SUCCINATE]: the “Bacterial Biotransformation” value in [1], in [2], in series [3], in series [4], in series [5] and in series [6] was “Compound NOT metabolized” each time. Also, the “Bacterial Biotransformation” value in series [7], in series [8], in series [9], in series [10], in series [11] and in [12] was “Compound NOT metabolized” each time. Moreover, the “Bacterial Biotransformation” value in series [13], in series [14], in [15], in series [16], in series [17] and in [18] was “Compound NOT metabolized” throughout. The “Bacterial Biotransformation” value in [19] and in series [20] was “Compound NOT metabolized” throughout.

Regarding `CN1CCN(C(=O)O[C@H]2c3nccnc3C(=O)N2c2ccc(Cl)cn2)CC1` [ESZOPICLONE], the “Bacterial Biotransformation” value in series [1], in series [2], in [3], in [4], in [5] and in series [6] was “Compound NOT metabolized” throughout. Moreover, the “Bacterial Biotransformation” value in series [7], in [8], in series [9], in series [10], in [11] and in series [12] was “Compound NOT metabolized” throughout. Moreover, the “Bacterial Biotransformation” value in series [13], in series [14], in series [15], in series [16], in [17] and in series [18] was “Compound NOT metabolized” each time. Also, the “Bacterial Biotransformation” value in series [19] and in [20] was “Compound NOT metabolized” in each case.

As for `O=C1[C@H](CC[C@H](O)c2ccc(F)cc2)[C@@H](c2ccc(O)cc2)N1c1ccc(F)cc1` [EZETIMIBE], the “Bacterial Biotransformation” value is recorded as “Compound metabolized” in [1]; “Compound NOT metabolized” in series [2]; “Compound NOT metabolized” in series [3]; “Compound NOT metabolized” in series [4]; “Compound NOT metabolized” in series [5]; “Compound NOT metabolized” in series [6]. In addition, the “Bacterial Biotransformation” value in series [7], in series [8], in [9], in series [10], in series [11] and in series [12] was “Compound NOT metabolized” throughout. Besides, the “Bacterial Biotransformation” value in series [13], in [14], in series [15], in series [16], in series [17] and in [18] was “Compound NOT metabolized” each time. For the same compound, the “Bacterial Biotransformation” value was “Compound metabolized” in [19] and “Compound NOT metabolized” in series [20].

With `O=C1NCC2(CCN(CCc3ccccc3)CC2)O1` [FENSPIRIDE], the “Bacterial Biotransformation” value in series [1], in series [2], in series [3], in series [4], in series [5] and in [6] was “Compound NOT metabolized” in each case. Also, the “Bacterial Biotransformation” value in series [7], in [8], in [9], in series [10], in series [11] and in series [12] was “Compound NOT metabolized” throughout. Also, the “Bacterial Biotransformation” value is listed as “Compound NOT metabolized” in series [13]; “Compound metabolized” in [14]; “Compound NOT metabolized” in series [15]; “Compound NOT metabolized” in [16]; “Compound NOT metabolized” in [17]; “Compound NOT metabolized” in series [18]. The “Bacterial Biotransformation” value in [19] and in series [20] was “Compound NOT metabolized” in each case.

With `OC(Cn1cncn1)(Cn1cncn1)c1ccc(F)cc1F` [FLUCONAZOLE], the “Bacterial Biotransformation” value in series [1] is reported as “Compound metabolized”; in series [2], “Compound NOT metabolized”; in [3], “Compound NOT metabolized”; in series [4], “Compound NOT metabolized”; in [5] it was “Compound metabolized”; in [6], “Compound NOT metabolized”. Besides, the “Bacterial Biotransformation” value in [7] is listed as “Compound metabolized”; in [8], “Compound NOT metabolized”; in [9], “Compound NOT metabolized”; in series [10], “Compound NOT metabolized”; in series [11], “Compound metabolized”; in series [12] it was “Compound NOT metabolized”. Moreover, the “Bacterial Biotransformation” value in series [13] was “Compound metabolized”; in series [14], “Compound NOT metabolized”; in series [15], “Compound NOT metabolized”; in [16], “Compound metabolized”; in series [17] it was “Compound metabolized”; in series [18] it was “Compound NOT metabolized”. The “Bacterial Biotransformation” value in series [19] and in [20] was “Compound NOT metabolized” each time.
